Test results taken from PubChem BioAssay (NCI).
Where “and” joins values, the source holds several entries; their conditions need not be identical. Equal entries are not always repeated.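 In this assay, cells in 96-well plates receive the compound at five concentrations for 48 hours. Endpoints are linearly interpolated between the surrounding concentrations. GI50 marks 50% less growth. TGI marks complete inhibition of growth.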

Experiments:
Assay in all cases: inhibition of tumour cell growth, NCI panel, 48 h
CAKI-1 renal = system: CAKI-1 renal
HOP-62 NSCLC = system: HOP-62 NSCLC
K-562 leukemia = system: K-562 leukemia
KM12 colon = system: KM12 colon
MALME-3M melanoma = system: MALME-3M melanoma
RXF 393 renal = system: RXF 393 renal
SN12C renal = system: SN12C renal
SNB-19 CNS = system: SNB-19 CNS
U251 CNS = system: U251 CNS
UO-31 renal = system: UO-31 renal

Structure (SMILES)	GI50 (CAKI-1 renal)	TGI (CAKI-1 renal)	GI50 (HOP-62 NSCLC)	TGI (HOP-62 NSCLC)	GI50 (K-562 leukemia)	GI50 (KM12 colon)	TGI (KM12 colon)	GI50 (MALME-3M melanoma)	TGI (MALME-3M melanoma)	GI50 (RXF 393 renal)	TGI (RXF 393 renal)	GI50 (SN12C renal)	TGI (SN12C renal)	GI50 (SNB-19 CNS)	TGI (SNB-19 CNS)	GI50 (U251 CNS)	TGI (U251 CNS)	GI50 (UO-31 renal)	TGI (UO-31 renal)	TGI (K-562 leukemia)
O=C(N/N=C/c1ccccc1Cl)c1ccccc1Nc1ccnc(C(F)(F)F)c1	0.389 µM	2.72 µM	1.31 µM	8.18 µM	2.16 µM	1.99 µM	6.66 µM	1.55 µM	4.94 µM	0.174 µM	1.1 µM	1.27 µM	12.7 µM	2.4 µM	> 61.2 µM	1.15 µM	6.18 µM	1.92 µM	6.49 µM	–
CC(=O)/C(=C\C1=CCCO1)C(=O)Nc1ccccc1C	–	> 100 µM	–	> 100 µM	–	–	> 100 µM	–	> 100 µM	–	> 100 µM	–	> 100 µM	–	> 100 µM	–	> 100 µM	–	> 100 µM	> 100 µM
CC[Si](CC)(CC)OC[C@]1([C@@H]2COC(C)(C)O2)CC=CC(=O)O1	33.6 µM	> 100 µM	57.8 µM	> 100 µM	34.6 µM	34.3 µM	> 100 µM	18.1 µM	44.4 µM	48 µM	> 100 µM	31.1 µM	> 100 µM	34.7 µM	> 100 µM	42.2 µM	> 100 µM	34.8 µM	> 100 µM	> 100 µM
O=c1[nH]ccc2nc(N3CCC(O)CC3)nc(Nc3cccc(C(F)(F)F)c3)c12	0.282 µM	6.3 µM	4.4 µM	18.8 µM	3.14 µM	1.44 µM	5.42 µM	2.61 µM	7.87 µM	1.45 µM	23.2 µM	4.07 µM	> 100 µM	18.1 µM	> 100 µM	6.15 µM	> 100 µM	0.785 µM	23 µM	> 100 µM
Cc1cc(N2CCN(c3ccnc4cc(Cl)ccc34)CC2)nc(NC2CCCCC2)n1	1.63 µM	3.6 µM	2.02 µM	4.61 µM	2.1 µM	2.56 µM	6.27 µM	1.89 µM	3.83 µM	1.71 µM	3.79 µM	1.82 µM	3.73 µM	2.98 µM	11 µM	1.72 µM	3.37 µM	1.4 µM	3.13 µM	5.64 µM
NC(=O)c1ccc2c(-c3ccnc(NCCCO)n3)c(-c3ccc(F)cc3)nn2c1	> 25 µM	> 25 µM	> 25 µM	> 25 µM	> 25 µM	> 25 µM	> 25 µM	> 25 µM	> 25 µM	21.4 µM	> 25 µM	> 25 µM	> 25 µM	> 25 µM	> 25 µM	> 25 µM	> 25 µM	5.9 µM	> 25 µM	> 25 µM
CCOc1ccc(Nc2nc(-c3ccc4c(c3)NC(=O)CO4)cs2)cc1	19 µM	90.7 µM	15.4 µM	> 100 µM	4.86 µM	11.1 µM	> 100 µM	4.71 µM	20.4 µM	16.1 µM	62.4 µM	49.4 µM	> 100 µM	18.9 µM	> 100 µM	10.7 µM	> 100 µM	5.47 µM	> 100 µM	> 100 µM
CCCCCCCCCCC(O)C1CCC(C(O)CCC(O)C2CCC(CCCCCCC[C@H](O)CC3=C[C@@H](C)OC3=O)O2)O1 (stereo not given in full)	–	> 100 µM	–	> 100 µM	2.18 µM	–	68.1 µM	–	> 100 µM	–	33.9 µM	–	> 100 µM	–	> 88.3 µM	–	> 100 µM	–	> 86.1 µM	> 100 µM
COc1cc(C=Nc2ccc(C(C)C)cc2)cc(OC)c1OC	–	> 100 µM	–	> 100 µM	–	–	> 100 µM	–	> 100 µM	–	> 100 µM	–	> 100 µM	–	> 100 µM	–	> 100 µM	–	> 100 µM	> 86.7 µM
COc1ccc2cc3[n+](cc2c1OC)CCc1cc(O)c(O)cc1-3	–	> 100 µM	–	> 100 µM	–	–	> 100 µM	–	> 100 µM	–	> 100 µM	–	> 100 µM	–	> 100 µM	–	> 100 µM	–	> 100 µM	> 100 µM
Cc1cc(I)cc(CN(C)CCN2CCCC2)c1O	29.6 µM	> 93.3 µM	24.1 µM	87.5 µM	8.53 µM	32.8 µM	81.3 µM	24.3 µM	44.7 µM	20.7 µM	63.6 µM	41.3 µM	> 100 µM	34 µM	> 100 µM	31.5 µM	> 95.8 µM	28.7 µM	> 88.9 µM	26.4 µM
COc1ccc(C(=O)OC2C=COC(C)C2OC(=O)c2ccc(OC)cc2)cc1 (stereo not given)	–	> 100 µM	–	> 100 µM	–	–	40.2 µM	–	> 47.1 µM	–	20.9 µM	–	> 64.5 µM	–	> 100 µM	–	97.9 µM	–	> 100 µM	63.9 µM
COc1ccc(-c2nc3ncccn3c2/C=C/C(=O)c2cc(OC)c(OC)c(OC)c2)cc1	1.58 µM	5.06 µM	2.83 µM	10.3 µM	2.63 µM	1.61 µM	3.04 µM	1.81 µM	17.1 µM	1.11 µM	2.57 µM	2.56 µM	35.1 µM	3.01 µM	10.3 µM	1.29 µM	4.26 µM	0.514 µM	4.17 µM	> 100 µM
CC1(C)CC(n2cnc(-c3ccc(F)cc3)c2-c2ccnc(N)n2)CC(C)(C)N1	> 25 µM	> 25 µM	> 16.8 µM	> 25 µM	> 24.1 µM	18.1 µM	> 25 µM	> 25 µM	> 25 µM	> 24.1 µM	> 25 µM	17.9 µM	> 25 µM	> 25 µM	> 25 µM	> 20.1 µM	> 25 µM	16.6 µM	> 25 µM	> 25 µM
CC1=C2C[C@H]3[C@@H](CC=C4C[C@@H](O)CC[C@@]43C)[C@@H]2CC[C@]12O[C@@H]1C[C@H](C)CN[C@H]1[C@H]2C	29.2 µM and 20 µM	50 µM and 44.5 µM	17.8 µM and 24.5 µM	50 µM and 68.6 µM	9.4 µM and 15.9 µM	41.3 µM and 23.4 µM	50 µM and 54.7 µM	19.3 µM and 17.6 µM	50 µM and 36 µM	6.01 µM	27.9 µM and 12.3 µM	25.6 µM and 18.3 µM	50 µM and 47.4 µM	22.6 µM and 20.7 µM	50 µM and 52.6 µM	7.96 µM and 18.6 µM	18.3 µM and 39.6 µM	11.5 µM and 19 µM	35.9 µM and 37.2 µM	34.7 µM and 40.2 µM
CCOC(=O)NC(=O)c1cn(CCCOC(=O)CCCCCCCCCCC(=O)OCCCn2cc(C(=O)NC(=O)OCC)c(=O)n(C)c2=O)c(=O)n(C)c1=O	–	> 100 µM	–	> 100 µM	–	–	> 100 µM	–	> 100 µM	–	> 100 µM	–	> 100 µM	–	> 100 µM	–	> 100 µM	–	> 100 µM	> 100 µM
NC(=N\N=C/c1cccc([N+](=O)[O-])c1)/C(N)=N\N=C/c1cccc([N+](=O)[O-])c1	> 100 µM	> 100 µM	> 100 µM	> 100 µM	> 100 µM	> 100 µM	> 100 µM	> 100 µM	> 100 µM	> 100 µM	> 100 µM	> 100 µM	> 100 µM	> 100 µM	> 100 µM	> 100 µM	> 100 µM	> 100 µM	> 100 µM	> 100 µM
O=C(CC12CC3CC(CC(C3)C1)C2)NCCOCCOCCOCCNC(=O)c1cc2c(o1)C(=O)c1ccccc1C2=O	1.93 µM	5.74 µM	1.89 µM	3.33 µM	1.32 µM	2.87 µM	10.3 µM	0.157 µM	0.328 µM	1.55 µM	2.95 µM	1.03 µM	2.26 µM	1.32 µM	7.63 µM	1.53 µM	3.09 µM	1.51 µM	3.13 µM	5.32 µM
O=C1NC(=S)NC(=O)C1=Cc1cccc2cc3ccccc3cc12	–	4.15 µM	–	4.16 µM	–	–	4.08 µM	–	4.17 µM	–	3.53 µM	–	4.9 µM	–	5.32 µM	–	3.36 µM	–	3.94 µM	> 24 µM
Nc1nc(=S)[nH]c(C(=O)Nc2ccc(Cl)c(Cl)c2)c1-c1ccc(Cl)cc1	–	> 100 µM	–	> 100 µM	–	–	> 100 µM	–	> 100 µM	–	> 100 µM	–	> 100 µM	–	> 100 µM	–	> 100 µM	–	> 100 µM	> 100 µM
